Results: ChEMBL document CHEMBL6182936, “Discovery of KDX1381, a Bivalent CK2α Inhibitor for the Treatment of Solid Tumors as a Single Agent or in Combination” (J Med Chem, 2025)
Converted amounts (≈) assume the structure as drawn. The source made the active and inactive calls. The rule behind the calls is not given here.

Legend:
786-0 [1] = experiment: cells; conditions: Homo sapiens, 786-0, 72 h
physchem [2] = conditions: PBS buffer, pH 7.4
Hep 3B2 [3] = experiment: animal or person; conditions: Mus musculus, Hep3B, po, read-out: TGI
786-0 [4] = experiment: cells; conditions: Homo sapiens, 786-0, 72 h, read-out: Activity
in vitro = conditions: mouse, hepatocytes
786-0 [5] = experiment: cells; conditions: Homo sapiens, 786-0, 72 h, read-out: Activity; remark: listed apart in the source
HCT-116 = experiment: cells; conditions: Homo sapiens, HCT-116, 72 h, read-out: Activity
in vivo [6] = conditions: CD-1, mouse, ip, 40 mg/kg
in vivo [7] = conditions: CD-1, mouse, ip, 40 mg/kg; remark: listed apart in the source
in vivo [8] = conditions: CD-1, mouse, ip, 40 mg/kg; remark: listed apart in the source
786-0 [9] = conditions: Homo sapiens, dose 20.0 mg/kg, route po, time 28.0 day
animal or person [10] = conditions: Homo sapiens, SF767, po, 1152 h, read-out: TGI
in vivo [11] = conditions: CD-1, mouse, ip, 40 mg/kg; remark: listed apart in the source
786-0 [12] = experiment: cells; conditions: Homo sapiens, 786-0, 72 h, read-out: Activity; remark: listed apart in the source
animal or person [13] = conditions: Homo sapiens, SF767, po, 1152 h, read-out: TGI; remark: listed apart in the source
in vivo [14] = conditions: CD-1, mouse, iv, 1 mg/kg
physchem [15] = conditions: PBS buffer, pH 7.4; remark: listed apart in the source
Hep 3B2 [16] = experiment: animal or person; conditions: Mus musculus, Hep3B, po, read-out: TGI; remark: listed apart in the source
Hep 3B2 [17] = experiment: animal or person; conditions: Mus musculus, Hep3B, po, read-out: TGI; remark: listed apart in the source
786-0 [18] = experiment: animal or person; conditions: Mus musculus, 786-0, 384 h, read-out: TGI
A-375 = conditions: Homo sapiens, dose 5-40 mg/kg, route ip
in vivo [19] = conditions: CD-1, mouse, iv, 1 mg/kg; remark: listed apart in the source
786-0 [20] = experiment: cells; conditions: Homo sapiens, 786-0, 72 h, read-out: Activity; remark: listed apart in the source
physchem [21] = conditions: NCl, pH 1.2
in vivo [22] = conditions: CD-1, mouse, iv, 1 mg/kg; remark: listed apart in the source
physchem [23] = conditions: FaSSIF, pH 6.5
animal or person [24] = conditions: Homo sapiens, SF767, po, 1152 h, read-out: TGI; remark: listed apart in the source
786-0 [25] = experiment: cells; conditions: Homo sapiens
786-0 [26] = experiment: cells; conditions: Homo sapiens; remark: listed apart in the source
SK-BR-3 [27] = experiment: cells; conditions: Homo sapiens
SK-BR-3 [28] = experiment: cells; conditions: Homo sapiens; remark: listed apart in the source
physchem [29] = experiment: physchem

## CC(=O)c1[nH]c2ccc(F)cc2c1-c1cn(CC2CCN(CCNS(=O)(=O)c3ccc(-c4c(O)cccc4Cl)cc3)CC2)nn1
786-0 [1]
  IC50: 3.3 µM
Physchem [2]
  solubility at 24 h: < 0.5 µg/mL

## CNC(=O)c1cc(Oc2ccc(NC(=O)Nc3ccc(Cl)c(C(F)(F)F)c3)cc2)ccn1 [SORAFENIB]
Hep 3B2 [3]
  inhibition in vivo at 40 mg/kg: 29%
786-0 [4]
  viability at 4.5 µM: 88%

## COc1cccc(OC)c1-c1ccc(S(=O)(=O)NCCN2CCC(Cn3cc(-c4c(C(C)=O)[nH]c5ccc(F)cc45)nn3)CC2)cc1C
786-0 [1]
  IC50: 1.7 µM
In vitro
  remaining at 0.5 h: 44%
Physchem [2]
  solubility at 24 h: 1.9 µg/mL (≈ 2.82 µM)

## COc1cc(S(=O)(=O)NCCN2CCC(Cn3cc(-c4c(C(C)=O)[nH]c5ccc(F)cc45)nn3)CC2)ccc1-c1c(O)cccc1F
786-0 [1]
  IC50: > 10 µM
In vitro
  remaining at 0.5 h: 39%
Physchem [2]
  solubility at 24 h: 3.2 µg/mL (≈ 4.81 µM)

## CC(C)Cc1ccc(S(=O)(=O)NCCN2CCC(Cn3cc(-c4c(C(=O)C5CC5)[nH]c5ccc(F)cc45)nn3)CC2)cc1
786-0 [1]
  IC50: > 10 µM
Physchem [2]
  solubility at 24 h: < 0.5 µg/mL

## CC(=O)c1[nH]c2ccc(F)cc2c1-c1cn(CC2CCN(CCNS(=O)(=O)c3ccc(-c4c(O)cccc4F)c(C#N)c3)CC2)nn1
Physchem [2]
  solubility at 24 h: 25.5 µg/mL (≈ 38.7 µM)

## O=C(O)c1ccc2c(c1)nc(Nc1cccc(Cl)c1)c1ccncc12 [SILMITASERTIB]
786-0 [5]
  viability at 10 µM: 93.5%
HCT-116
  viability at 10 µM: 69.2%

## CC(=O)c1[nH]c2ccc(F)cc2c1-c1cn(CC2CCN(CCNS(=O)(=O)c3ccc(CC(C)C)cc3)CC2)nn1
786-0 [1]
  IC50: 3.2 µM
In vitro
  remaining at 0.5 h: 53%
Physchem [2]
  solubility at 24 h: 10.4 µg/mL (≈ 17.9 µM)

## COc1ccccc1-c1ccc(S(=O)(=O)NCCN2CCC(Cn3cc(-c4c(C(C)=O)[nH]c5ccc(F)cc45)nn3)CC2)cc1C
786-0 [1]
  IC50: 2.9 µM

## CC(=O)c1[nH]c2ccc(F)cc2c1-c1cn(CC2CCN(CCNS(=O)(=O)c3ccc(-c4c(O)cccc4F)cc3)CC2)nn1
In vivo [6]
  AUC(0-inf) at 24 h: 8640 ng·h/mL
In vivo [7]
  Cmax at 24 h: 2700 ng/mL
In vivo [8]
  Tmax at 24 h: 1.33 h
786-0 [9]
  TGI: Active
786-0 [5]
  viability at 10 µM: 12.7%
786-0 [1]
  IC50: 0.8 µM
Animal or person [10]
  inhibition in vivo at 40 mg/kg: 77%
In vivo [11]
  bioavailability at 24 h: > 100%
786-0 [12]
  viability at 1 µM: 25%
Animal or person [13]
  inhibition in vivo at 40 mg/kg: 103%
In vivo [14]
  Vd at 24 h: 5.9 L/kg
Physchem [15]
  solubility: 1.7 µg/mL (≈ 2.68 µM)
Hep 3B2 [16]
  inhibition in vivo at 30 mg/kg: 74%
HCT-116
  viability at 10 µM: 85.1%
Hep 3B2 [17]
  inhibition in vivo at 30 mg/kg: 95%
786-0 [18]
  inhibition in vivo at 40 mg/kg: 90%
A-375
  TGI: Active
In vivo [19]
  clearance at 24 h: 60.5 mL/min/kg
In vitro
  remaining at 0.5 h: 42%
786-0 [20]
  viability at 1 µM: 90.4%
Physchem [21]
  solubility: 28.2 µg/mL (≈ 44.4 µM)
In vivo [22]
  half-life at 24 h: 1.13 h
Physchem [23]
  solubility: > 100 µg/mL
Physchem [2]
  solubility at 24 h: 10.7 µg/mL (≈ 16.9 µM)

## CCOC(=O)c1[nH]c2ccc(F)cc2c1-c1cn(CC2CCN(CCNS(=O)(=O)c3ccc(CC(C)C)cc3)CC2)nn1
786-0 [1]
  IC50: > 10 µM
In vitro
  remaining at 0.5 h: < 10%
Physchem [2]
  solubility at 24 h: < 0.5 µg/mL

## CC(=O)c1[nH]c2ccc(F)cc2c1-c1cn(CC2CCN(CCNS(=O)(=O)c3ccc(-c4c(O)cccc4F)c(C(F)(F)F)c3)CC2)nn1
786-0 [1]
  IC50: 3.6 µM
In vitro
  remaining at 0.5 h: < 10%
Physchem [2]
  solubility at 24 h: 1.1 µg/mL (≈ 1.57 µM)

## CC(=O)c1[nH]c2ccc(F)cc2c1-c1cn(CC2CCN(CCNS(=O)(=O)c3ccc(-c4cccc5ccsc45)cc3)CC2)nn1
786-0 [1]
  IC50: > 10 µM

## COc1cccc(F)c1-c1ccc(S(=O)(=O)NCCN2CCC(Cn3cc(-c4c(C(C)=O)[nH]c5ccc(F)cc45)nn3)CC2)cc1
786-0 [1]
  IC50: > 10 µM
In vitro
  remaining at 0.5 h: 48%
Physchem [2]
  solubility at 24 h: 5.4 µg/mL (≈ 8.32 µM)

## CC(C)Cc1ccc(S(=O)(=O)NCCN2CCC(Cn3cc(-c4c[nH]c5ccccc45)nn3)CC2)cc1
786-0 [1]
  IC50: 5.9 µM
In vitro
  remaining at 0.5 h: 18%
Physchem [2]
  solubility at 24 h: 2.7 µg/mL (≈ 5.19 µM)

## CC(C)Cc1ccc(S(=O)(=O)NCCN2CCC(Cn3cc(-c4c[nH]c5ccc(F)cc45)nn3)CC2)cc1
786-0 [1]
  IC50: 6.8 µM
In vitro
  remaining at 0.5 h: 25%
Physchem [2]
  solubility at 24 h: 1.5 µg/mL (≈ 2.78 µM)

## CC(=O)c1[nH]c2ccc(F)cc2c1-c1cn(CC2CCN(CCNS(=O)(=O)c3ccc(-c4c(F)cccc4C(F)(F)F)cc3)CC2)nn1
786-0 [1]
  IC50: > 10 µM
Physchem [2]
  solubility at 24 h: < 0.5 µg/mL

## CC(=O)c1[nH]c2ccc(F)cc2c1-c1cn(CC2CCN(CCNS(=O)(=O)c3ccc(-c4ccccc4O)cc3)CC2)nn1
786-0 [1]
  IC50: 0.9 µM
In vitro
  remaining at 0.5 h: 46%
Physchem [2]
  solubility at 24 h: 18.5 µg/mL (≈ 30 µM)

## CC(C)Cc1ccc(S(=O)(=O)NCCN2CCC(Cn3cc(-c4c(C(=O)C(C)C)[nH]c5ccc(F)cc45)nn3)CC2)cc1
786-0 [1]
  IC50: > 10 µM
In vitro
  remaining at 0.5 h: 15%
Physchem [2]
  solubility at 24 h: 0.9 µg/mL (≈ 1.48 µM)

## COc1cccc(OC)c1-c1ccc(S(=O)(=O)NCCN2CCC(Cn3cc(-c4c(C(C)=O)[nH]c5ccc(F)cc45)nn3)CC2)cc1
786-0 [1]
  IC50: > 10 µM
In vitro
  remaining at 0.5 h: 67%
Physchem [2]
  solubility at 24 h: 8 µg/mL (≈ 12.1 µM)

## Cn1nnc2c(C(N)=O)ncn2c1=O [TEMOZOLOMIDE]
Animal or person [24]
  inhibition in vivo at 20 mg/kg: 67%

## CC(=O)c1[nH]c2ccc(F)cc2c1-c1cn(CC2CCN(CCNS(=O)(=O)c3ccc(-c4c(O)cccc4F)c(C)c3)CC2)nn1
786-0 [1]
  IC50: 6.6 µM
In vitro
  remaining at 0.5 h: 27%
Physchem [2]
  solubility at 24 h: 3.4 µg/mL (≈ 5.24 µM)

## CSc1ccccc1-c1ccc(S(=O)(=O)NCCN2CCC(Cn3cc(-c4c(C(C)=O)[nH]c5ccc(F)cc45)nn3)CC2)cc1C
786-0 [1]
  IC50: > 10 µM
In vitro
  remaining at 0.5 h: 26%
Physchem [2]
  solubility at 24 h: < 0.5 µg/mL

## CC(C)COC(=O)c1[nH]c2ccc(F)cc2c1-c1cn(CC2CCN(CCNS(=O)(=O)c3ccc(CC(C)C)cc3)CC2)nn1
786-0 [25]
  IC50: 14.8 µM
786-0 [1]
  IC50: > 10 µM
786-0 [26]
  IC50: 14.8 µM
SK-BR-3 [27]
  IC50: 8.9 µM
In vitro
  remaining at 0.5 h: < 10%
SK-BR-3 [28]
  IC50: 8.9 µM
Physchem [2]
  solubility at 24 h: < 0.5 µg/mL
Physchem [29]
  solubility: < 0.5 µg/mL

## CC(=O)c1[nH]c2ccc(F)cc2c1-c1cn(CC2CCN(CCNS(=O)(=O)c3ccc(-c4c(O)cccc4F)c(Cl)c3)CC2)nn1
786-0 [1]
  IC50: > 10 µM
Physchem [2]
  solubility at 24 h: < 0.5 µg/mL
